Assays:
[1] = tested on: Human immunodeficiency virus 1; test: Antiviral activity against HIV-1 LAI infected in human CEMx174-LTR-GFP CG8 cells assessed as inhibition of viral replication after 5 days; assay type: functional, organism-based; settings: Human immunodeficiency virus 1, LAI, 120 h
[2] = Cytotoxicity against human CEmx174 cells expressing GFP after 5 days by resazurin assay; assay type: cell-based
Cytochrome P450 3A4 = Cytochrome P450 3A4 (Homo sapiens, UniProt P08684); test: Inhibition of recombinant CYP3A4 (unknown origin) after 3 mins by LC-MS/MS analysis; assay type: ADME
Sequence of Cytochrome P450 3A4 (P08684 whole entry): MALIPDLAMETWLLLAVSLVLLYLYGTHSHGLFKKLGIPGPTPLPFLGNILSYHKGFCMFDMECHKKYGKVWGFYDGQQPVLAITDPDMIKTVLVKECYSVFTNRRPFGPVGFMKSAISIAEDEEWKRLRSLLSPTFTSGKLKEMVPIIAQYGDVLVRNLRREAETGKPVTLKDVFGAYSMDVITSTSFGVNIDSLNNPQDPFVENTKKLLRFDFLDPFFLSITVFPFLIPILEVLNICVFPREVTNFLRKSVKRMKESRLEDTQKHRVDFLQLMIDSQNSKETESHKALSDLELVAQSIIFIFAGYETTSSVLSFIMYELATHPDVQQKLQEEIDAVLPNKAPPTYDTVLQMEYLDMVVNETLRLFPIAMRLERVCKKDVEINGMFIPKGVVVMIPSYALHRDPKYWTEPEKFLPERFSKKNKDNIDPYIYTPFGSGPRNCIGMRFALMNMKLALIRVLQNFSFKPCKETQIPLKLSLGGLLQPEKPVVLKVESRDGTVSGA

[3] = Therapeutic index, ratio of CC50 for human CEmx174 cells expressing GFP to IC50 for HIV-1 LAI infected in human CEMx174-LTR-GFP CG8 cells; settings: read-out: Ratio CC50/EC50
Cytochrome P450 1A2 = biological target: T1, Cytochrome P450 1A2 (Homo sapiens, UniProt P05177); test: Inhibition of recombinant CYP1A2 (unknown origin) after 10 mins by LC-MS/MS analysis; assay type: ADME
T1 sequence (P05177 whole entry): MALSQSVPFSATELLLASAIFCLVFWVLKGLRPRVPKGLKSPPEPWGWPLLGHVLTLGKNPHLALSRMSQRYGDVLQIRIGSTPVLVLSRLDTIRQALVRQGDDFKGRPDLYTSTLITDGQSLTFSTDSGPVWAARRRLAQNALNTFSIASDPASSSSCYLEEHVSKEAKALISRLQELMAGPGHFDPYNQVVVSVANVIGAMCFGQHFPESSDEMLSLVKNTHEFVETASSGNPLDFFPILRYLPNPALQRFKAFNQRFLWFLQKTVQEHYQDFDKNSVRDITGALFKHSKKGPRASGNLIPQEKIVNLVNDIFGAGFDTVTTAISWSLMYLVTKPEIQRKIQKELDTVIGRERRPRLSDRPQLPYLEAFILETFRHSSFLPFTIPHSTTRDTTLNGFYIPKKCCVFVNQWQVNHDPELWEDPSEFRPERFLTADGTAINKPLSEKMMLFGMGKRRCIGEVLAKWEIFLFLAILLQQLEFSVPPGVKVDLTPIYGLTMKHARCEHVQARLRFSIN

Cytochrome P450 2C9 = Cytochrome P450 2C9 (Homo sapiens, UniProt P11712); test: Inhibition of recombinant CYP2C9 (unknown origin) after 10 mins by LC-MS/MS analysis; assay type: ADME
Sequence of Cytochrome P450 2C9 (P11712 whole entry): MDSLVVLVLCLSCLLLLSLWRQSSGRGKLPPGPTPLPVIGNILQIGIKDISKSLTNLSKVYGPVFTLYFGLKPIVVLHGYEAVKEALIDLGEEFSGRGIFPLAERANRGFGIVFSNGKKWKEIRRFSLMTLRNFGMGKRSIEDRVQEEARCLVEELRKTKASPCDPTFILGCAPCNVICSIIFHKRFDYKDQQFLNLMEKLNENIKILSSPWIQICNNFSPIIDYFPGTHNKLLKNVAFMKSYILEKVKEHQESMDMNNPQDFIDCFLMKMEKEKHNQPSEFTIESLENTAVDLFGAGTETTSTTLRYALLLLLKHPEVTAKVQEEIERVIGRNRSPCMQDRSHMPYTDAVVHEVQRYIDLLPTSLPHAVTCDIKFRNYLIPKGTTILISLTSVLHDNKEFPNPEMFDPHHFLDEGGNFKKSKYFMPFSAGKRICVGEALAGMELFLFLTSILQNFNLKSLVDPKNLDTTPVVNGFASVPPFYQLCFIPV

Cytochrome P450 2D6 = Cytochrome P450 2D6 (Homo sapiens, UniProt P10635); test: Inhibition of recombinant CYP2D6 (unknown origin) after 20 mins by LC-MS/MS analysis; assay type: ADME
Sequence of Cytochrome P450 2D6 (P10635 whole entry): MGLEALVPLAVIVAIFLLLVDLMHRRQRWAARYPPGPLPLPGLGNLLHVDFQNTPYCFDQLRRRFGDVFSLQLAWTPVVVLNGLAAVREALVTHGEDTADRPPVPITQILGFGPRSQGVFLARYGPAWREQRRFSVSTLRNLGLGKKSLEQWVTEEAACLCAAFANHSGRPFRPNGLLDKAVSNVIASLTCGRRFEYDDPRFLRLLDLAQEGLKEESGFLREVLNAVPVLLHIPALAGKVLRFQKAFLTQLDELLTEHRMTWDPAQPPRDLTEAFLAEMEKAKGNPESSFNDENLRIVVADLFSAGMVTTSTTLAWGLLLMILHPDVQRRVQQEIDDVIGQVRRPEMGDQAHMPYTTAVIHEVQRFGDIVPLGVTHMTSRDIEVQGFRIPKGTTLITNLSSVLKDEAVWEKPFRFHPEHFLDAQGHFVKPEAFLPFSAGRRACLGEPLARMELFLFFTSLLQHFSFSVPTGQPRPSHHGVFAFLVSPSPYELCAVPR

Row | SMILES | EC50 [1] [µM] | IC50 (Cytochrome P450 3A4) [µM] | IC50 (Cytochrome P450 1A2) [µM] | IC50 (Cytochrome P450 2C9) [µM] | IC50 (Cytochrome P450 2D6) [µM] | CC50 at 120 h [2] [µM] | selectivity ratio [3]
1 | CCC1=C(C(=O)OCC2CCCCC2)C(c2cccc(O)c2)NC(=O)N1 (stereo not drawn) | 0.53 |  |  |  |  | > 10 | 
2 | c1ccc(-c2cc(CNc3nncc(-c4cccc5ccccc45)n3)n[nH]2)cc1 | 0.27 |  |  |  |  | > 10 | 
3 | O=S(=O)(Cc1nc(-c2cccnc2)c2sccc2n1)c1cccc(Cl)c1 | 0.485 |  |  |  |  | > 50 | > 103
4 | O=S(=O)(Cc1nc(-c2ccncc2)c2sccc2n1)c1cccc(Cl)c1 | 0.189 |  |  |  |  | > 50 | > 264
5 | O=S(=O)(Cc1nc(-c2ccnc(Cl)c2)c2sccc2n1)c1cccc(Cl)c1 | 0.27 |  |  |  |  | 63 | 233
6 | O=S(=O)(Cc1nc(-c2ccc(Cl)nc2)c2sccc2n1)c1cccc(Cl)c1 | 3.2 |  |  |  |  | 70 | 21
7 | O=S(=O)(Cc1nc(-c2ccc(F)nc2)c2sccc2n1)c1cccc(Cl)c1 | 6 |  |  |  |  | 40 | 6.6
8 | O=c1ccc(-c2nc(CS(=O)(=O)c3cccc(Cl)c3)nc3ccsc23)c[nH]1 | 0.915 |  |  |  |  | > 50 | > 54
9 | COc1ccc(-c2nc(CS(=O)(=O)c3cccc(Cl)c3)nc3ccsc23)cc1 | 0.103 |  |  |  |  | 69 | 669
10 | O=S(=O)(Cc1nc(-c2cccs2)c2sccc2n1)c1cccc(Cl)c1 | 0.14 |  |  |  |  | > 50 | > 357
11 | O=S(=O)(Cc1nc(-c2ccoc2)c2sccc2n1)c1cccc(Cl)c1 | 0.775 |  |  |  |  | > 50 | > 64
12 | O=S(=O)(Cc1nc(N2CCOCC2)c2sccc2n1)c1cccc(Cl)c1 | 0.59 |  |  |  |  | > 50 | > 84
13 | COc1ccc(Nc2nc(CS(=O)(=O)c3cccc(Cl)c3)nc3ccsc23)cc1 | 3.2 |  |  |  |  | 60 | 18.8
14 | COc1ccc(Oc2nc(CS(=O)(=O)c3cccc(Cl)c3)nc3ccsc23)cc1 | 0.831 |  |  |  |  | > 50 | > 60
15 | COc1ccc(-c2nc(C3(S(=O)(=O)c4cccc(Cl)c4)CC3)nc3ccsc23)cn1 | 0.069 |  |  |  |  | > 50 | > 724
16 | COc1ccc(-c2nc(C(C)S(=O)(=O)c3cccc(Cl)c3)nc3ccsc23)cn1 (stereo not drawn) | 0.084 |  |  |  |  | > 50 | > 595
17 | COc1ccc(-c2nc(C(F)S(=O)(=O)c3cccc(Cl)c3)nc3ccsc23)cn1 (stereo not drawn) | 0.087 |  |  |  |  | > 50 | > 574
18 | COc1ccc(-c2nc(C(F)(F)S(=O)(=O)c3cccc(Cl)c3)nc3ccsc23)cn1 | 0.237 |  |  |  |  | > 50 | > 210
19 | COc1ccc(-c2nc(C(C)(C)S(=O)(=O)c3cccc(Cl)c3)nc3ccsc23)cn1 | 2.3 |  |  |  |  | > 50 | > 21
20 | Cc1ccnc2c1NC(=O)c1cccnc1N2C1CC1 [NEVIRAPINE] |  |  |  |  |  | > 10 | > 66

Second part, led by results:

Row | EC50 [1] [µM] | IC50 (Cytochrome P450 3A4) [µM] | IC50 (Cytochrome P450 1A2) [µM] | IC50 (Cytochrome P450 2C9) [µM] | IC50 (Cytochrome P450 2D6) [µM] | SMILES | CC50 at 120 h [2] [µM] | selectivity ratio [3]
21 | 0.025 | 6.71 | > 10 | 5.25 | > 10 | COc1ccc(-c2nc(CS(=O)(=O)c3cccc(Cl)c3)nc3ccsc23)cn1 | > 10 | > 400
22 | 0.322 |  |  |  |  | COc1ccc(-c2nc(S(=O)(=O)c3cccc(Cl)c3)nc3ccsc23)cn1 | > 50 | > 155
23 | 5.4 |  |  |  |  | COc1ccc(-c2nc(CCS(=O)(=O)c3cccc(Cl)c3)nc3ccsc23)cn1 | > 50 | > 9.2
24 | 0.532 |  |  |  |  | COc1ccc(-c2nc(C[S+]([O-])c3cccc(Cl)c3)nc3ccsc23)cn1 (stereo not drawn) | > 50 | > 93
25 | 0.014 |  |  |  |  | COc1ccc(-c2nc(CSc3cccc(Cl)c3)nc3ccsc23)cn1 | > 10 | > 714
26 | 8 |  |  |  |  | COc1ccc(-c2nc(/C=C\c3cccc(Cl)c3)nc3ccsc23)cn1 | 53 | 6.6
27 | 1.6 |  |  |  |  | COc1ccc(-c2nc(CCc3cccc(Cl)c3)nc3ccsc23)cn1 | > 50 | > 31
28 | 0.2 |  |  |  |  | COc1ccc(-c2nc(CC(=O)c3cccc(Cl)c3)nc3ccsc23)cn1 | 30 | 150
29 | 9 |  |  |  |  | COc1ccc(-c2nc(CC(O)c3cccc(Cl)c3)nc3ccsc23)cn1 (stereo not drawn) | 31 | 3.4
30 | 0.672 |  |  |  |  | COc1ccc(-c2nc(CNc3cccc(Cl)c3)nc3ccsc23)cn1 | > 50 | > 74
31 | 0.384 |  |  |  |  | COc1ccc(-c2nc(COc3cccc(Cl)c3)nc3ccsc23)cn1 | > 50 | > 130
32 | 0.728 |  |  |  |  | COc1ccc(-c2nc(CSc3cc(Cl)ccc3Cl)nc3ccsc23)cn1 | > 50 | > 68
33 | 5 |  |  |  |  | COc1ccc(-c2nc(CSc3cccc(Cl)c3Cl)nc3ccsc23)cn1 | > 50 | > 10
34 | 0.262 |  |  |  |  | COc1ccc(-c2nc(CSc3cccc(C(F)(F)F)c3)nc3ccsc23)cn1 | > 50 | > 190
35 | 0.158 |  |  |  |  | COc1ccc(-c2nc(CSc3cccc(Br)c3)nc3ccsc23)cn1 | > 50 | > 316
36 | 5 |  |  |  |  | COc1ccc(-c2nc(CSc3ccc(F)cc3F)nc3ccsc23)cn1 | > 50 | > 10
37 | 0.774 |  |  |  |  | COc1ccc(-c2nc(CSc3cc(C)cc(C)c3)nc3ccsc23)cn1 | > 50 | > 64
38 | 18 |  |  |  |  | COc1ccc(-c2nc(CSc3ccc(C(F)(F)F)cn3)nc3ccsc23)cn1 | > 50 | > 2.7
39 | 23 |  |  |  |  | COc1ccc(-c2nc(CSCc3cccc(Cl)c3)nc3ccsc23)cn1 | > 50 | > 2.2
